Data as given in the supplement of paper PMC10883282.
± gives the standard deviation of the averaged measurements.

Tested on: RD
Experiment: relative viability vs DMSO control (72 h) (fraction); higher = more viable cells
In short: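 ATPLite readings, expressed as percent growth and averaged over up to triplicate wells, provided relative viability. Before reading, sarcoma cell lines seeded in 384-well plates to reach 80–90% confluence received 2.5 µl of serially diluted compound after 24 h, from source plates of 10 mM to 0.0002 mM. Plates were held 72 h at 37 °C, 5% CO2, with 0.1% DMSO as vehicle and a 5 µM positive control. The data were rescaled to 1 for full and 0 for none.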

Row | SMILES | relative viability (0.00017 µM) | relative viability (0.00051 µM) | relative viability (0.00152 µM) | relative viability (0.00457 µM) | relative viability (0.01372 µM) | relative viability (0.04115 µM) | relative viability (0.1235 µM) | relative viability (0.3704 µM) | relative viability (1.111 µM) | relative viability (3.333 µM) | relative viability (10 µM)
1 | Cc1ccc(F)c(NC(=O)Nc2ccc(-c3cccc4[nH]nc(N)c34)cc2)c1 [Linifanib] | 1.07 ± 0.027 | 1.07 ± 0.028 | 1.08 ± 0.039 | 1.124 ± 0.01 | 1.12 ± 0.025 | 1.1 ± 0.033 | 1.14 ± 0.018 | 1.14 ± 0.031 | 1.12 ± 0.031 | 1.11 ± 0.042 | 1.13 ± 0.029
2 | C[C@]1(O)C[C@@H](c2nc(-c3ccc4ccc(-c5ccccc5)nc4c3)c3c(N)nccn32)C1 [Linsitinib] | 1.03 ± 0.04 | 1.09 ± 0.066 | 1.1 ± 0.047 | 1.06 ± 0.05 | 1.039 ± 0.0018 | 1.03 ± 0.035 | 0.875 ± 0.048 | 0.672 ± 0.0074 | 0.639 ± 0.028 | 0.633 ± 0.02 | 0.568 ± 0.0034
3 | Cc1ccc(NC(=O)c2ccc(CN3CCN(C)CC3)cc2)cc1Nc1nc(-c2cccnc2)cs1 [Masitinib] | 0.967 ± 0.042 | 0.962 ± 0.054 | 0.995 ± 0.039 | 1.03 ± 0.091 | 1.01 ± 0.096 | 0.995 ± 0.091 | 0.995 ± 0.1 | 0.976 ± 0.1 | 0.872 ± 0.074 | 0.587 ± 0.05 | 0.13 ± 0.02
4 | CC1(C)CNc2cc(NC(=O)c3cccnc3NCc3ccncc3)ccc21 [Motesanib] | 0.967 ± 0.013 | 0.964 ± 0.041 | 0.973 ± 0.046 | 0.96 ± 0.046 | 0.965 ± 0.04 | 0.989 ± 0.051 | 0.962 ± 0.032 | 0.975 ± 0.028 | 0.996 ± 0.056 | 1.03 ± 0.034 | 0.987 ± 0.066
5 | CC(C)N1CCN(Cc2cnc(-c3cc(-c4cccc5[nH]ccc45)cc4[nH]ncc34)o2)CC1 [Nemiralisib] | 0.931 ± 0.024 | 0.951 ± 0.017 | 0.916 ± 0.051 | 0.955 ± 0.025 | 0.941 ± 0.025 | 0.937 ± 0.011 | 0.964 ± 0.016 | 0.902 ± 0.028 | 0.83 ± 0.01 | 0.692 ± 0.053 | 0.128 ± 0.083
6 | C=CC(=O)Nc1cccc(Oc2nc(Nc3ccc(N4CCN(C)CC4)cc3)nc3ccsc23)c1 [Olmutinib] | 1.02 ± 0.051 | 1.04 ± 0.045 | 1.03 ± 0.046 | 1.04 ± 0.032 | 1.03 ± 0.068 | 1.03 ± 0.056 | 1.04 ± 0.051 | 1.07 ± 0.058 | 1.01 ± 0.051 | 0.892 ± 0.08 | 0.174 ± 0.025
7 | CC(C)(C)c1cc(NC(=O)Nc2ccc(-c3cn4c(n3)sc3cc(OCCN5CCOCC5)ccc34)cc2)no1 [Quizartinib] | 1.08 ± 0.04 | 1.07 ± 0.036 | 1.08 ± 0.035 | 1.08 ± 0.06 | 1.07 ± 0.035 | 1.06 ± 0.025 | 1.07 ± 0.05 | 1.05 ± 0.055 | 1.04 ± 0.025 | 0.942 ± 0.1 | 0.922 ± 0.065
8 | CNC(=O)c1cc(Oc2ccc(NC(=O)Nc3ccc(Cl)c(C(F)(F)F)c3)c(F)c2)ccn1 [Regorafenib] | 1.06 ± 0.017 | 1.11 ± 0.028 | 1.13 ± 0.052 | 1.14 ± 0.089 | 1.13 ± 0.075 | 1.14 ± 0.063 | 1.12 ± 0.04 | 1.01 ± 0.058 | 0.877 ± 0.069 | 0.787 ± 0.05 | 0.558 ± 0.048
9 | CO[C@H]1C[C@@H]2CC[C@@H](C)[C@@](O)(O2)C(=O)C(=O)N2CCCC[C@H]2C(=O)O[C@H]([C@H](C)C[C@@H]2CC[C@@H](OP(C)(C)=O)[C@H](OC)C2)CC(=O)[C@H](C)/C=C(\C)[C@@H](O)[C@@H](OC)C(=O)[C@H](C)C[C@H](C)/C=C/C=C/C=C/1C [Ridaforolimus] | 1.06 ± 0.032 | 1.05 ± 0.049 | 0.921 ± 0.01 | 0.847 ± 0.02 | 0.753 ± 0.038 | 0.75 ± 0.036 | 0.764 ± 0.029 | 0.71 ± 0.053 | 0.715 ± 0.071 | 0.701 ± 0.053 | 0.683 ± 0.05
